Measurements from patent US10966970B2, “Fused tricyclic compounds and uses thereof in medicine” (SUNSHINE LAKE PHARMA CO., LTD., priority 2017, dated 2021).

How the values were obtained:
HBV DNA replication = test: Inhibition of HBV virus replication (HBV DNA in supernatant, qPCR); type: cell-based; conditions: Hepatitis B virus, 240 h; HepG2.2.15 cells, 10 days treatment, supernatant HBV DNA by qPCR
Protocol: (§1) The chromosomes of HepG2.2.15 cells (SELLS, PNAS, 1987 and SELLS, JV, 1988) integrate the complete HBV genome and stably express viral RNA and viral proteins. HepG2.2.15 cells are able to secrete mature HBV particles and HBsAg into the culture medium. Viral particle DNA and HBsAg secreted by HepG 2.2.15 cells can be quantified by qPCR and ELISA methods, and the effects of the compound on virus replication and HBsAg secretion are thus examined.
(§2) HepG 2.2.15 Cells (8,000 per well) were seeded into 96-well cell culture plates in duplicate and cultured for 3 days until the cells grew to fill in pores. Cells were treated with 4-fold serial diluted compound solution for 10 days, and the compound solution was exchanged once every other day, the final concentration of DMSO in all wells was 0.5% and DMSO was used as a drug-free control. On the eleventh day, the supernatant was collected for quantitative detection of HBV DNA.
qPCR method was used for detection of viral genomic DNA, HBV primers were as follows: HBV-For-202, […]; HBV-Rev-315, […].
Using the SY BR Premix Ex Taq II—Takara DRR081S kit, 1 ≈L of the cell culture supernatant was used as a template, a plasmid containing the HBV genome was used for plotting a standard curve, and virus copy number was calculated using the standard curve. Concentration-virus copy number was treated with Graphpad Prism 5 software and the IC50 of inhibition of virus replication by compounds was calculated by a four-parameter nonlinear regression model.

HBsAg secretion = test: Inhibition of HBsAg secretion (ELISA); type: cell-based, HBV; conditions: Hepatitis B virus, HepG2.2.15, 240 h, read-out: HbsAg IC50 (nM)
Protocol: as §1
as §2, with “HBsAg.” for “HBV DNA.”
The level of HBsAg secreted by the cells after treatment with the compound was detected by ELISA. The method used a hepatitis B surface antigen diagnostic kit (Shanghai K ehua Biotechnology Co., Ltd. 510910113). 25 ≈L of the supernatant to be examined (diluted to 75 ≈L in PBS) was added to each well of the ELISA plate, and a kit-positive control and a negative control were set. The ELISA plates were blocked with mounting paper and incubated at 37 eC for 60 minutes. The ELISA plate was took out, and the mounting paper was removed, then 50 ≈L of enzyme conjugate was added into each well. After shaking for 10 seconds, the ELISA plates were blocked with mounting paper and incubated at 37 eC for 30 minutes. The ELISA plate was took out, and the mounting paper was removed, and the ELISA plate was repeated washing five times: liquid in the wells was discard each time; the wells was filled with washing solution, then stood for 60 seconds and spined dry; and liquid residue on blotting paper was patted dry. After the washing was completed, to all wells was immediately added a mixture of freshly prepared developer A and developer B: 100 ≈L per well. After shaking for 10 seconds on oscillator, the ELISA plates were blocked with mounting paper and incubated at 37 eC for 30 minutes. To all wells were added 50 ≈L of stop solution. Data were read at a wavelength of 450 nm on an Envision plate reader. Concentration-HBsAg OD450 value was treated with Graphpad Prism 5 software and the IC50 of inhibition of HBsAg secretion by compounds was calculated by a four-parameter nonlinear regression model.

| SMILES | IC50 (HBV DNA replication) [nM] | IC50 (HBsAg secretion) [nM] |
| --- | --- | --- |
| COc1cc2c(cc1-c1nccs1)CC(C(C)C)n1cc(C(=O)O)c(=O)cc1-2 (centres unmarked) [Example 75, 6-isopropyl-10-methoxy-2-oxo-9-(thiazol-2-yl)-6,7-dihydro-2H-pyrido[2,1-a]isoquinoline-3-carboxylic Acid] | 2.1 | 2.41 |
| COCCCOc1cc2c(cc1-c1ncco1)-c1cc(=O)c(C(=O)O)cn1C(C(C)C)C2 (centres unmarked) [Example 10, 6-isopropyl-9-(3-methoxypropoxy)-10-(oxazol-2-yl)-2-oxo-6,7-dihydro-2H-pyrido[2,1-a]isoquinoline-3-carboxylic Acid] | 7.29 | 10.5 |
| COCCCOc1cc2c(cc1-c1cscn1)-c1cc(=O)c(C(=O)O)cn1C(C(C)C)C2 (centres unmarked) [Example 13, 6-isopropyl-9-(3-methoxypropoxy)-2-oxo-10-(thiazol-4-yl)-6,7-dihydro-2H-pyrido[2,1-a]isoquinoline-3-carboxylic Acid] | 0.64 | 1.48 |
| CCCCCOc1cc2c(cc1-c1nccs1)-c1cc(=O)c(C(=O)O)cn1C(C(C)C)C2 (centres unmarked) [Example 20, 6-isopropyl-2-oxo-9-(pentyloxy)-10-(thiazol-2-yl)-6,7-dihydro-2H-pyrido[2,1-a]isoquinoline-3-carboxylic Acid] | 8.79 | 8.12 |
| CC(C)C1Cc2cc(OCc3ccccc3)c(-c3nccs3)cc2-c2cc(=O)c(C(=O)O)cn21 (centres unmarked) [Example 18, 9-(benzyloxy)-6-isopropyl-2-oxo-10-(thiazol-2-yl)-6,7-dihydro-2H-pyrido[2,1-a]isoquinoline-3-carboxylic Acid] | 8.09 | 5.53 |
| COCCCOc1cc2c(cc1C(=O)OC)-c1cc(=O)c(C(=O)O)cn1C(C(C)C)C2 (centres unmarked) [Example 1, 6-isopropyl-10-(methoxycarbonyl)-9-(3-methoxypropoxy)-2-oxo-6,7-dihydro-2H-pyrido[2,1-a]isoquinoline-3-carboxylic Acid] | 6.3 | 2.25 |
| COc1cc2c(cc1-c1ncc(C(C)C)s1)CC(C(C)C)n1cc(C(=O)O)c(=O)cc1-2 (centres unmarked) [Example 77, 6-isopropyl-9-(5-isopropylthiazol-2-yl)-10-methoxy-2-oxo-6,7-dihydro-2H-pyrido[2,1-a]isoquinoline-3-carboxylic Acid] | 2.79 | 2.87 |
| CC(=O)c1cc2c(cc1N1CCCC1)CC(C(C)C)n1cc(C(=O)O)c(=O)cc1-2 (centres unmarked) [Example 30, 10-acetyl-6-isopropyl-2-oxo-9-(pyrrolidin-1-yl)-6,7-dihydro-2H-pyrido[2,1-a]isoquinoline-3-carboxylic Acid] | 7.68 | 7.83 |
| COCCCOc1cc2c(cc1-c1ncc(Br)s1)-c1cc(=O)c(C(=O)O)cn1C(C(C)C)C2 (centres unmarked) [Example 24, 10-(5-bromothiazol-2-yl)-6-isopropyl-9-(3-methoxypropoxy)-2-oxo-6,7-dihydro-2H-pyrido[2,1-a]isoquinoline-3-carboxylic Acid] | 8.63 | 9.99 |
| COC(=O)c1cc2c(cc1-c1ccc(Cl)o1)CC(C(C)C)n1cc(C(=O)O)c(=O)cc1-2 (centres unmarked) [Example 74, 9-(5-chlorofuran-2-yl)-6-isopropyl-10-(methoxycarbonyl)-2-oxo-6,7-dihydro-2H-pyrido[2,1-a]isoquinoline-3-carboxylic Acid] | 2.97 | 3.68 |
| COCCCOc1cc2c(cc1-c1ccco1)-c1cc(=O)c(C(=O)O)cn1C(C(C)C)C2 (centres unmarked) [Example 11, 10-(furan-2-yl)-6-isopropyl-9-(3-methoxypropoxy)-2-oxo-6,7-dihydro-2H-pyrido[2,1-a]isoquinoline-3-carboxylic Acid] | 1.9 | 1.6 |
| CC(C)C1Cc2cc(OCC3CCOCC3)c(-c3nccs3)cc2-c2cc(=O)c(C(=O)O)cn21 (centres unmarked) [Example 21, 6-isopropyl-2-oxo-9-((tetrahydro-2H-pyran-4-yl)methoxy)-10-(thiazol-2-yl)-6,7-dihydro-2H-pyrido[2,1-a]isoquinoline-3-carboxylic Acid] | 0.3 | 0.35 |
| COc1cc2c(cc1-c1ccco1)CC(C(C)C)n1cc(C(=O)O)c(=O)cc1-2 (centres unmarked) [Example 16, 9-(furan-2-yl)-6-isopropyl-10-methoxy-2-oxo-6,7-dihydro-2H-pyrido[2,1-a]isoquinoline-3-carboxylic Acid] | 1.99 | 3.2 |
